Where “and” joins values, the source holds several entries; their conditions need not be identical. Equal values may be shown once. One block for each compound: values may come before it.
Key:
[1] = Skin blood flow in rats after topical application, measured with a Laser Doppler Flowmeter; format: in vivo, Wistar male rats; conditions: rat, measured after 20 minutes
Procedure: Wistar male rats (180 to 200 g weights) were employed as experimental animals. The quantity of the skin blood in this experiment was measured with a Laser Doppler Flowmeter (PF2B, Perimed). The backs of rats were sheared. A day later, the rats were anesthetisized with urethane (1 g/Kg) and a quantity of blood flow was measured. This quantity was defined as a normal flow.
Immediately after the measurement of the normal flow, a group of rats were treated with topical application of 25 μl of test liquid in 50% ethanol solution and a group of rats were treated with topical application of 50% ethanol solution as a control. The skin blood flow was measured at 20 minute, 40 minute and 60 minute intervals. MeOH extract from Calanthe discolor Lindl. (CDM-ext: 0.5% and 2.0%), Calanthoside A (0-20%), and indilbin (0.2%) were tested, and the results for the extract are shown in Table 1.
The ability of Calanthoside B to increase skin blood flow can be used to promote hair growth.

tyrosinase = test: Tyrosinase inhibition (L-Dopa, dopachrome absorbance at 475 nm, procedure of Manson and Peterson); format: biochemical, mushroom
Procedure: This experiment was conducted according to the procedure of Manson and Peterson. A 0.5 ml L-Dopa solution (0.03% in pH6.8 PBS) was added to 0.5 ml of a test liquid, and incubated for 5 minutes at 25° C. After which, a 0.5 ml of tyrosinase solution (obtained from a mushroom) was added and the mixture was further incubated for 5 minutes at 25° C. […] Kojic acid was used for a positive control test.

SMILES: OCC1O[C@@H](OCC2O[C@@H](Oc3c[nH]c4ccccc34)C(O)C(O)[C@@H]2O)C(O)C(O)[C@@H]1O (stereo partly drawn) [Calanthoside A, 3-O-β-D-glucopyranosyl (1-6)-β-D-glucopyranosylindole]
skin blood flow (result in words) ([1]; Calanthoside A (0-20%)): increases skin blood flow | % Inhibition (tyrosinase; concentration 50 μg/ml): 38.6% | % Inhibition (tyrosinase; concentration 200 μg/ml): 65.9%

SMILES: OCC1O[C@@H](Oc2c(S[C@@H]3OC(CO)[C@@H](O)C(O)C3O)[nH]c3ccccc23)C(O)C(O)[C@@H]1O (stereo partly drawn) [Calanthoside B, 2-S-β-D-glucopyranosyl-3-O-β-D-glucopyrannosyl-2-mercaptoindole]
skin blood flow (result in words) ([1]; 0.2%): increases skin blood flow

% Inhibition (tyrosinase; concentration 5 (μM)): 32.5% and 28.2% and 23.9% | % Inhibition (tyrosinase; concentration 20 (μM)): 66.0% and 62.2% and 59.3% | % Inhibition (tyrosinase; concentration 50 (μM)): 82.7% and 80.3% and 78.6% | anti-tyrosinase activity (result in words) (tyrosinase; summary of Table 2): strong anti-tyrosinase activity
SMILES: O=c1cc(CO)occ1O [Kojic Acid, Kojic acid]

— patent US6380168B1, “Method for promoting hair growth” (Nomura Co., Ltd., priority 1992, dated 2002)
